Target: T1, CCR2 (Homo sapiens, UniProt P41597)
T1 construct: host or cells: THP-1 human monocytic cells
T1 sequence (P41597 1-360 isoform P41597-2): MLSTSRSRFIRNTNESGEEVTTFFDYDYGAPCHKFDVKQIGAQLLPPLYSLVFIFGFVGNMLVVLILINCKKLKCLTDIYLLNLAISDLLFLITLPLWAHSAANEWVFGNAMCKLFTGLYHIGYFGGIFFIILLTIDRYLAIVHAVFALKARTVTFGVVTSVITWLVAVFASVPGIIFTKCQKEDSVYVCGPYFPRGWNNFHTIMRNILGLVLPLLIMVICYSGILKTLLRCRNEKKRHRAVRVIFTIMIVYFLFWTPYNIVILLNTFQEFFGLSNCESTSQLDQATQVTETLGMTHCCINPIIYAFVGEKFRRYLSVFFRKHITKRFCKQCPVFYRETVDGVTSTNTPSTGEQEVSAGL
Assay: MCP-1 Receptor Binding Assay in THP-1 Cells
Details: 0.5 nM 125I labeled MCP-1, 2 hours at 30° C., less polar isomer tested where stated, read-out: Inhibition of MCP-1 Binding IC50, CCR2 Binding
Description: MCP-1 Receptor Binding Assay in THP-1 Cells
Human monocytic cell line THP-1 cells were obtained from American Type Culture Collection (Manassas, Va., USA). The THP-1 cells were grown in RPMI-1640 (RPMI: Roswell Park Memorial Institute Medium-cell culture growth media) supplemented with 10% fetal bovine serum in a humidified 5% CO2 atmosphere at 37° C. The cell density was maintained […].
THP-1 (cells were incubated with 0.5 nM ^125I labeled MCP-1 (Perkin-Elmer Life Sciences, Inc. Boston, Mass.) in the presence of varying concentrations of either unlabeled MCP-1 (R & D Systems, Minneapolis, Minn.) or test compound for 2 hours at 30° C. in a 96 well plate. Cells were then harvested onto a filter plate, dried, and 20 μL of Microscint 20 was added to each well. Plates were counted in a TopCount NXT, Microplate Scintillation & Luminescence Counter (Perkin-Elmer Life Sciences, Inc. Boston, Mass.). Blank values (buffer only) were subtracted from all values and drug treated values were compared to vehicle treated values. 1 μM cold MCP-1 was used for nonspecific binding.
Where an IC50 value was not obtained for a particular compound, the percent inhibition is provided at a test concentration of 25 μM.

Row | IC50 [nM] | Structure (SMILES)
1 | 520 | N#CC1CCC(N2CC(NC(=O)CNc3nn(C(N)=O)c4ccc(C(F)(F)F)cc34)C2)CC1 (stereo not drawn) [Example 87, 3-({[1-(4-Cyano-cyclohexyl)-azetidin-3-ylcarbamoyl]-methyl}-amino)-5-trifluoromethyl-indazole-1-carboxylic acid amide]
2 | 3400 | Cc1ccc(C2(O)CCC(N3CC(NC(=O)CNc4nn(C)c5ccc(C(O)C(F)(F)F)cc45)C3)CC2)cn1 (stereo not drawn) [Example 63, N-{1-[4-Hydroxy-4-(6-methyl-pyridin-3-yl)-cyclohexyl]-azetidin-3-yl}-2-[1-methyl-5-(2,2,2-trifluoro-1-hydroxy-ethyl)-1H-indazol-3-ylamino]-acetamide]
3 | 330 | CCC(O)[C@H]1CC[C@@H](N2CC(NC(=O)CNc3n[nH]c4ncc(C(F)(F)F)cc34)C2)CC1 (single isomer, unassigned) [Example 105]
4 | 42 | Cn1nc(NCC(=O)NC2CN(C3CCC(O)(c4cncs4)CC3)C2)c2cc(OC(F)(F)F)ccc21 (stereo not drawn) [Example 55, N-[1-(4-Hydroxy-4-thiazol-5-yl-cyclohexyl)-azetidin-3-yl]-2-(1-methyl-5-trifluoromethoxy-1H-indazol-3-ylamino)-acetamide]
5 | 13 | CCOC(=O)C1CCC(N2CC(NC(=O)CNc3nn(C)c4ccc(C(F)(F)F)cc34)C2)CC1 (stereo not drawn) [Example 32, 4-{3-[2-(1-Methyl-5-trifluoromethyl-1H-indazol-3-ylamino)-acetylamino]-azetidin-1-yl}-cyclohexane carboxylic acid ethyl ester]
6 | 5900 | CC(C)C1CCC(N2CC(NC(=O)CNc3nn(Cc4ccccc4)c4ccc(C(F)(F)F)cc34)C2)CC1 (stereo not drawn) [Example 98, 2-(1-Benzyl-5-trifluoromethyl-1H-indazol-3-ylamino)-N-[1-(4-isopropyl-cyclohexyl)-azetidin-3-yl]-acetamide]
7 | 3100 | CC(C)NC(=O)n1nc(NCC(=O)NC2CN(C3CCC(C4CCCCC4)CC3)C2)c2cc(C(F)(F)F)ccc21 (stereo not drawn) [Example 93, 3-{[(1-Bicyclohexyl-4-yl-azetidin-3-ylcarbamoyl)-methyl]-amino}-5-trifluoromethyl-indazole-1-carboxylic acid isopropylamide]
8 | 55 | Cc1ccc(C2(O)CCC(N3CC(NC(=O)CNc4nn(CCO)c5ccc(C(F)(F)F)cc45)C3)CC2)cn1 (stereo not drawn) [Example 74, 2-[1-(2-Hydroxy-ethyl)-5-trifluoromethyl-1H-indazol-3-ylamino]-N-{1-[4-hydroxy-4-(6-methyl-pyridin-3-yl)-cyclohexyl]-azetidin-3-yl}-acetamide]
9 | 230 | CCOC(=O)C1CCC(N2CC(NC(=O)CNc3nn(S(C)(=O)=O)c4ccc(C(F)(F)F)cc34)C2)CC1 (stereo not drawn) [Example 99, 4-{3-[2-(1-Methanesulfonyl-5-trifluoromethyl-1H-indazol-3-ylamino)-acetylamino]-azetidin-1-yl}-cyclohexane carboxylic acid ethyl ester]
10 | 230 | CCOC(=O)C1CCC(N2CC(NC(=O)CNc3nn(CC(F)(F)F)c4ccc(C(F)(F)F)cc34)C2)CC1 (stereo not drawn) [Example 72, 4-(3-{2-[1-(2,2,2-Trifluoro-ethyl)-5-trifluoromethyl-1H-indazol-3-ylamino]-acetylamino}-azetidin-1-yl)-cyclohexane carboxylic acid ethyl ester]
11 | 1500 | CCc1ncc(C2(O)CCC(N3CC(NC(=O)CNc4nn(C)c5ccc(C(O)C(F)(F)F)cc45)C3)CC2)s1 (stereo not drawn) [Example 62, N-{1-[4-(2-Ethyl-thiazol-5-yl)-4-hydroxy-cyclohexyl]-azetidin-3-yl}-2-[1-methyl-5-(2,2,2-trifluoro-1-hydroxy-ethyl)-1H-indazol-3-ylamino]-acetamide]
12 | 35 | Cn1nc(NCC(=O)NC2CN(C3CCC(O)(c4nccs4)CC3)C2)c2cc(OC(F)(F)F)ccc21 (stereo not drawn) [Example 54, N-[1-(4-Hydroxy-4-thiazol-2-yl-cyclohexyl)-azetidin-3-yl]-2-(1-methyl-5-trifluoromethoxy-1H-indazol-3-ylamino)-acetamide]
13 | 230 | O=C(CNc1n[nH]c2ccc(C(F)(F)F)nc12)NC1CN([C@H]2CC[C@@](O)(c3cncs3)CC2)C1 [Example 104, N-(1-((1R,4R)-4-hydroxy-4-(thiazol-5-yl)cyclohexyl)azetidin-3-yl)-2-((5-(trifluoromethyl)-1H-pyrazolo[4,3-b]pyridin-3-yl)amino)acetamide]
14 | 146 | Cn1nc(NCC(=O)NC2CN(C3CCC(O)(c4ncco4)CC3)C2)c2cc(C(F)(F)F)ccc21 (stereo not drawn) [Example 26, N-[1-(4-Hydroxy-4-oxazol-2-yl-cyclohexyl)-azetidin-3-yl]-2-(1-methyl-5-trifluoromethyl-1H-indazol-3-ylamino)-acetamide]
15 | 430 | N#CC1CCC(N2CC(NC(=O)CNc3n[nH]c4ccc(C(F)(F)F)cc34)C2)CC1 (stereo not drawn) [Example 48, N-[1-(4-Cyano-cyclohexyl)-azetidin-3-yl]-2-(5-trifluoromethyl-1H-indazol-3-ylamino)-acetamide]
16 | 3700 | COc1ccc(C2CCC(N3CC(NC(=O)CNc4nn(S(C)(=O)=O)c5ccc(C(F)(F)F)cc45)C3)CC2)cn1 (stereo not drawn) [Example 100, 2-(1-Methanesulfonyl-5-trifluoromethyl-1H-indazol-3-ylamino)-N-{1-[4-(6-methoxy-pyridin-3-yl)-cyclohexyl]-azetidin-3-yl}-acetamide]
17 | 450 | N#CC1CCC(N2CC(NC(=O)CNc3noc4ccc(C(F)(F)F)cc34)C2)CC1 (stereo not drawn) [Example 13, N-[1-(4-Cyano-cyclohexyl)-azetidin-3-yl]-2-(5-trifluoromethyl-benzo[d]isoxazol-3-ylamino)-acetamide]
18 | 1400 | Cn1ccnc1C1(O)CCC(N2CC(NC(=O)CNc3nn(C)c4ccc(C(F)(F)F)cc34)C2)CC1 (stereo not drawn) [Example 27, N-{1-[4-Hydroxy-4-(1-methyl-1H-imidazol-2-yl)-cyclohexyl]-azetidin-3-yl}-2-(1-methyl-5-trifluoromethyl-1H-indazol-3-ylamino)-acetamide]
19 | 330 | O=C(CNc1noc2ccc(C(F)(F)F)cc12)NC1CN(C2CCC(C3CCCCC3)CC2)C1 (stereo not drawn) [Example 5, N-(1-Bicyclohexyl-4-yl-azetidin-3-yl)-2-(5-trifluoromethyl-benzo[d]isoxazol-3-ylamino)-acetamide]
20 | 530 | NC(=O)n1nc(NCC(=O)NC2CN(C3CCC(O)CC3)C2)c2cc(C(F)(F)F)ccc21 (stereo not drawn) [Example 85, 3-({[1-(4-Hydroxy-cyclohexyl)-azetidin-3-ylcarbamoyl]-methyl}-amino)-5-trifluoromethyl-indazole-1-carboxylic acid amide]
21 | 13 | Cn1nc(NCC(=O)NC2CN(C3CCC(O)(c4nccs4)CC3)C2)c2cc(C(F)(F)F)ccc21 (stereo not drawn) [Example 22, N-[1-(4-Hydroxy-4-thiazol-2-yl-cyclohexyl)-azetidin-3-yl]-2-(1-methyl-5-trifluoromethyl-1H-indazol-3-ylamino)-acetamide]
22 | 300 | Cn1nc(NCC(=O)NC2CN(C3CCC(C(=O)NCCO)CC3)C2)c2cc(C(F)(F)F)ccc21 (stereo not drawn) [Example 40, 4-{3-[2-(1-Methyl-5-trifluoromethyl-1H-indazol-3-ylamino)-acetylamino]-azetidin-1-yl}-cyclohexane carboxylic acid (2-hydroxy-ethyl)-amide]
23 | 32 | COc1ccc(C2(O)CCC(N3CC(NC(=O)CNc4nn(CCO)c5ccc(C(F)(F)F)cc45)C3)CC2)cn1 (stereo not drawn) [Example 75, 2-[1-(2-Hydroxy-ethyl)-5-trifluoromethyl-1H-indazol-3-ylamino]-N-{1-[4-hydroxy-4-(6-methoxy-pyridin-3-yl)-cyclohexyl]-azetidin-3-yl}-acetamide]
24 | 19 | Cc1ncc(C2(O)CCC(N3CC(NC(=O)CNc4nn(C)c5ccc(C(F)(F)F)cc45)C3)CC2)s1 (stereo not drawn) [Example 28, N-{-[4-Hydroxy-4-(2-methyl-thiazol-5-yl)-cyclohexyl]-azetidin-3-yl}-2-(1-methyl-5-trifluoromethyl-1H-indazol-3-ylamino)-acetamide]
25 | 6.6 | O=C(CNc1n[nH]c2ccc(C(F)(F)F)cc12)NC1CN(C2CCC(c3ccc4c(c3)OCO4)CC2)C1 (stereo not drawn) [Example 45, N-[1-(4-Benzo[1,3]dioxol-5-yl-cyclohexyl)-azetidin-3-yl]-2-(5-trifluoromethyl-1H-indazol-3-ylamino)-acetamide]
26 | 45 | CCOC(=O)C1CCC(N2CC(NC(=O)CNc3nn(C)c4ccc(OC(F)(F)F)cc34)C2)CC1 (single isomer, unassigned) [Example 58]
27 | 370 | CC(C)C1CCC(N2CC(NC(=O)CNc3n[nH]c4ccc(C(F)(F)F)cc34)C2)CC1 (stereo not drawn) [Example 52, N-[1-(4-Isopropyl-cyclohexyl)-azetidin-3-yl]-2-(5-trifluoromethyl-1H-indazol-3-ylamino)-acet amide]
